{"source": "patent US5036050A", "about": "“Compositions containing thymopentin for topical treatment of skin disorders” (Immunobiology Research Institute, Inc., priority 1989, dated 1991)", "system": "neuromuscular transmission", "experiment": "Neuromuscular assay (electromyography after topical application)", "format": "in vivo, guinea pigs", "conditions": "18 hours later", "procedure": "To determine the effect of different formulations and dosages of compositions according to the invention, varying amounts of topical TP5 compositions prepared as described in Example 1B, were applied to the skin of guinea pigs.\nA 11/2\"×11/2\" square section was shaved on each animal's back 24 hours before the application of the thymopentin composition. Four concentrations of thymopentin cream were used (10%, 5%, 2.5% and 1.25%) using Unibase® as a diluent. A total of 100 mg of cream containing either 10 mg, 5 mg, 2.5 mg or 1.25 mg thymopentin was rubbed with a spatula on the shaved skin of each animal. Control animals were treated similarly with the Unibase® carrier only.\nEighteen hours later the neuromuscular transmission of each group of five animals for each concentration was assessed by electromyography as described in Lancet, 12:256-259 (1975).", "note": "Where no end group is shown, it is not given here.", "data": [{"substance": "RKDVY [thymopentin]", "values": [{"measurement": "neuromuscular change compared to control animals", "setting": "5% thymopentin cream in Unibase, 100 mg cream (5 mg thymopentin) on shaved skin", "result": "Significant neuromuscular change"}, {"measurement": "neuromuscular change compared to control animals", "setting": "10% thymopentin cream in Unibase, 100 mg cream (10 mg thymopentin) on shaved skin", "result": "Significant neuromuscular change"}]}]}
